Source: patent US9174994B2, “Enhanced treatment regimens using mTor inhibitors” (INTELLIKINE LLC, priority 2011, dated 2015)

Experiment: Phase I clinical trial: treatment-emergent adverse events (patients, n (%)), dose limiting toxicity, MTD
Type: in vivo
Protocol: Safety, maximum tolerated dose (MTD), pharmacokinetics (PK) and preliminary antitumor activity were evaluated.
Pharmacodynamic (PD) endpoints were evaluated in surrogate (peripheral blood cells [PBCs], skin) and tumor tissues for the phosphorylation of TORC1-dependent markers (4EBP1/S6), and TORC2-dependent markers (AKT/PRAS40).

Question: What does the source list for `CC(C)n1nc(-c2ccc3oc(N)nc3c2)c2c(N)ncnc21` [compound A]?
Answer: Anaemia (2 mg/day (N = 3)): 0 (0%); Asthenia (2 mg/day (N = 3)): 0 (0%); Blood creatinine increased (2 mg/day (N = 3)): 0 (0%); Coagulopathy (2 mg/day (N = 3)): 0 (0%); Confusional state (2 mg/day (N = 3)): 0 (0%); Cough (2 mg/day (N = 3)): 0 (0%); Decreased appetite (2 mg/day (N = 3)): 1 (33%); Dehydration (2 mg/day (N = 3)): 0 (0%); Diarrhoea (2 mg/day (N = 3)): 0 (0%); Dizziness (2 mg/day (N = 3)): 0 (0%); Dry mouth (2 mg/day (N = 3)): 1 (33%); Dry skin (2 mg/day (N = 3)): 0 (0%); Dysgeusia (2 mg/day (N = 3)): 2 (67%); Dyspepsia (2 mg/day (N = 3)): 1 (33%); Dyspnoea (2 mg/day (N = 3)): 0 (0%); Dyspnoea exertional (2 mg/day (N = 3)): 0 (0%); Eye infection (2 mg/day (N = 3)): 0 (0%); Fatigue (2 mg/day (N = 3)): 1 (33%); Gastritis (2 mg/day (N = 3)): 0 (0%); Gravitational oedema (2 mg/day (N = 3)): 0 (0%); Hypercholesterolaemia (2 mg/day (N = 3)): 0 (0%); Hyperglycaemia (2 mg/day (N = 3)): 2 (67%); Hypocalcaemia (2 mg/day (N = 3)): 0 (0%); Insomnia (2 mg/day (N = 3)): 0 (0%); Lymphopenia (2 mg/day (N = 3)): 0 (0%); Mucosal inflammation (2 mg/day (N = 3)): 0 (0%); Muscle spasms (2 mg/day (N = 3)): 0 (0%); Nausea (2 mg/day (N = 3)): 1 (33%); Orthostatic hypotension (2 mg/day (N = 3)): 0 (0%); Panniculitis (2 mg/day (N = 3)): 0 (0%); Patients Reporting at Least One Related TEAE (2 mg/day (N = 3)): 3 (100%); Polyuria (2 mg/day (N = 3)): 0 (0%); Pruritus (2 mg/day (N = 3)): 0 (0%); Rash (2 mg/day (N = 3)): 1 (33%); Skin discolouration (2 mg/day (N = 3)): 0 (0%); Skin exfoliation (2 mg/day (N = 3)): 0 (0%); Thrombocytopenia (2 mg/day (N = 3)): 0 (0%); Vomiting (2 mg/day (N = 3)): 0 (0%); Weight decreased (2 mg/day (N = 3)): 0 (0%); Anaemia (4 mg/day (N = 7)): 0 (0%); Asthenia (4 mg/day (N = 7)): 0 (0%); Blood creatinine increased (4 mg/day (N = 7)): 1 (14%); Coagulopathy (4 mg/day (N = 7)): 0 (0%); Confusional state (4 mg/day (N = 7)): 0 (0%); Cough (4 mg/day (N = 7)): 0 (0%); Decreased appetite (4 mg/day (N = 7)): 1 (14%); Dehydration (4 mg/day (N = 7)): 0 (0%); Diarrhoea (4 mg/day (N = 7)): 0 (0%); Dizziness (4 mg/day (N = 7)): 0 (0%); Dry mouth (4 mg/day (N = 7)): 1 (14%); Dry skin (4 mg/day (N = 7)): 0 (0%); Dysgeusia (4 mg/day (N = 7)): 3 (43%); Dyspepsia (4 mg/day (N = 7)): 0 (0%); Dyspnoea (4 mg/day (N = 7)): 0 (0%); Dyspnoea exertional (4 mg/day (N = 7)): 1 (14%); Eye infection (4 mg/day (N = 7)): 0 (0%); Fatigue (4 mg/day (N = 7)): 2 (29%); Gastritis (4 mg/day (N = 7)): 0 (0%); Gravitational oedema (4 mg/day (N = 7)): 0 (0%); Hypercholesterolaemia (4 mg/day (N = 7)): 1 (14%); Hyperglycaemia (4 mg/day (N = 7)): 5 (71%); Hypocalcaemia (4 mg/day (N = 7)): 0 (0%); Insomnia (4 mg/day (N = 7)): 0 (0%); Lymphopenia (4 mg/day (N = 7)): 1 (14%); Mucosal inflammation (4 mg/day (N = 7)): 2 (29%); Muscle spasms (4 mg/day (N = 7)): 0 (0%); Nausea (4 mg/day (N = 7)): 2 (29%); Orthostatic hypotension (4 mg/day (N = 7)): 0 (0%); Panniculitis (4 mg/day (N = 7)): 0 (0%); Patients Reporting at Least One Related TEAE (4 mg/day (N = 7)): 7 (100%); Polyuria (4 mg/day (N = 7)): 1 (14%); Pruritus (4 mg/day (N = 7)): 2 (29%); Rash (4 mg/day (N = 7)): 3 (43%); Skin discolouration (4 mg/day (N = 7)): 0 (0%); Skin exfoliation (4 mg/day (N = 7)): 0 (0%); Thrombocytopenia (4 mg/day (N = 7)): 1 (14%); Vomiting (4 mg/day (N = 7)): 0 (0%); Weight decreased (4 mg/day (N = 7)): 0 (0%); Dose limiting toxicity (6 mg QD): Rash; Alanine aminotransferase increased (6 mg/3 W, QDx3d QW (N = 3)): 1 (33%); Asthenia (6 mg/3 W, QDx3d QW (N = 3)): 0 (0%); Catheter site inflammation (6 mg/3 W, QDx3d QW (N = 3)): 0 (0%); Catheter site pain (6 mg/3 W, QDx3d QW (N = 3)): 0 (0%); Decreased appetite (6 mg/3 W, QDx3d QW (N = 3)): 0 (0%); Diarrhoea (6 mg/3 W, QDx3d QW (N = 3)): 0 (0%); Dry skin (6 mg/3 W, QDx3d QW (N = 3)): 0 (0%); Dysgeusia (6 mg/3 W, QDx3d QW (N = 3)): 0 (0%); Dyspnoea (6 mg/3 W, QDx3d QW (N = 3)): 0 (0%); Fatigue (6 mg/3 W, QDx3d QW (N = 3)): 0 (0%); Headache (6 mg/3 W, QDx3d QW (N = 3)): 0 (0%); Hyperbilirubinaemia (6 mg/3 W, QDx3d QW (N = 3)): 1 (33%); Hypercholesterolaemia (6 mg/3 W, QDx3d QW (N = 3)): 0 (0%); Hyperglycaemia (6 mg/3 W, QDx3d QW (N = 3)): 1 (33%); Hypertransaminasaemia (6 mg/3 W, QDx3d QW (N = 3)): 0 (0%); Hypertriglyceridaemia (6 mg/3 W, QDx3d QW (N = 3)): 0 (0%); Hypomagnesaemia (6 mg/3 W, QDx3d QW (N = 3)): 0 (0%); Hypotension (6 mg/3 W, QDx3d QW (N = 3)): 0 (0%); Low fever (6 mg/3 W, QDx3d QW (N = 3)): 0 (0%); Lymphopenia (6 mg/3 W, QDx3d QW (N = 3)): 0 (0%); Mucosal inflammation (6 mg/3 W, QDx3d QW (N = 3)): 2 (67%); Nausea (6 mg/3 W, QDx3d QW (N = 3)): 2 (67%); Palmar-plantar erythrodysaesthesia syndrome (6 mg/3 W, QDx3d QW (N = 3)): 0 (0%); Patients Reporting at Least One Related TEAE (6 mg/3 W, QDx3d QW (N = 3)): 3 (100%); Platelet count decreased (6 mg/3 W, QDx3d QW (N = 3)): 1 (33%); Pruritus (6 mg/3 W, QDx3d QW (N = 3)): 1 (33%); Pyrexia (6 mg/3 W, QDx3d QW (N = 3)): 0 (0%); Rash (6 mg/3 W, QDx3d QW (N = 3)): 1 (33%); Rash macular (6 mg/3 W, QDx3d QW (N = 3)): 0 (0%); Urinary tract infection (6 mg/3 W, QDx3d QW (N = 3)): 0 (0%); Vomiting (6 mg/3 W, QDx3d QW (N = 3)): 1 (33%); Asthenia (6 mg/3 W, QDx3d QW (N = 3), 2nd Asthenia line): 0 (0%); Anaemia (6 mg/day (N = 7)): 0 (0%); Asthenia (6 mg/day (N = 7)): 2 (29%); Blood creatinine increased (6 mg/day (N = 7)): 1 (14%); Coagulopathy (6 mg/day (N = 7)): 0 (0%); Confusional state (6 mg/day (N = 7)): 0 (0%); Cough (6 mg/day (N = 7)): 0 (0%); Decreased appetite (6 mg/day (N = 7)): 1 (14%); Dehydration (6 mg/day (N = 7)): 0 (0%); Diarrhoea (6 mg/day (N = 7)): 5 (71%); Dizziness (6 mg/day (N = 7)): 0 (0%); Dry mouth (6 mg/day (N = 7)): 0 (0%); Dry skin (6 mg/day (N = 7)): 0 (0%); Dysgeusia (6 mg/day (N = 7)): 1 (14%); Dyspepsia (6 mg/day (N = 7)): 0 (0%); Dyspnoea (6 mg/day (N = 7)): 0 (0%); Dyspnoea exertional (6 mg/day (N = 7)): 0 (0%); Eye infection (6 mg/day (N = 7)): 1 (14%); Fatigue (6 mg/day (N = 7)): 1 (14%); Gastritis (6 mg/day (N = 7)): 0 (0%); Gravitational oedema (6 mg/day (N = 7)): 0 (0%); Hypercholesterolaemia (6 mg/day (N = 7)): 3 (43%); Hyperglycaemia (6 mg/day (N = 7)): 7 (100%); Hypocalcaemia (6 mg/day (N = 7)): 0 (0%); Insomnia (6 mg/day (N = 7)): 1 (14%); Lymphopenia (6 mg/day (N = 7)): 0 (0%); Mucosal inflammation (6 mg/day (N = 7)): 2 (29%); Muscle spasms (6 mg/day (N = 7)): 1 (14%); Nausea (6 mg/day (N = 7)): 3 (43%); Orthostatic hypotension (6 mg/day (N = 7)): 0 (0%); Panniculitis (6 mg/day (N = 7)): 0 (0%); Patients Reporting at Least One Related TEAE (6 mg/day (N = 7)): 7 (100%); Polyuria (6 mg/day (N = 7)): 0 (0%); Pruritus (6 mg/day (N = 7)): 5 (71%); Rash (6 mg/day (N = 7)): 5 (71%); Skin discolouration (6 mg/day (N = 7)): 0 (0%); Skin exfoliation (6 mg/day (N = 7)): 0 (0%); Thrombocytopenia (6 mg/day (N = 7)): 0 (0%); Vomiting (6 mg/day (N = 7)): 3 (43%); Weight decreased (6 mg/day (N = 7)): 0 (0%); Diarrhoea (7 mg/5 W, QDx5d QW (N = 3)): 1 (33%); Patients Reporting at Least One Related TEAE (7 mg/5 W, QDx5d QW (N = 3)): 1 (33%); Rash (7 mg/5 W, QDx5d QW (N = 3)): 1 (33%); Urine tract infection (7 mg/5 W, QDx5d QW (N = 3)): 0 (0%); Vomiting (7 mg/5 W, QDx5d QW (N = 3)): 0 (0%); Nausea (7 mg/5 W, QDx5d QW (N = 3), 1st Nausea line): 0 (0%); Nausea (7 mg/5 W, QDx5d QW (N = 3), 2nd Nausea line): 1 (33%); Anaemia (7 mg/day (N = 8)): 2 (25%); Asthenia (7 mg/day (N = 8)): 4 (50%); Blood creatinine increased (7 mg/day (N = 8)): 4 (50%); Coagulopathy (7 mg/day (N = 8)): 1 (13%); Confusional state (7 mg/day (N = 8)): 1 (13%); Cough (7 mg/day (N = 8)): 1 (13%); Decreased appetite (7 mg/day (N = 8)): 3 (38%); Dehydration (7 mg/day (N = 8)): 2 (25%); Diarrhoea (7 mg/day (N = 8)): 3 (38%); Dizziness (7 mg/day (N = 8)): 1 (13%); Dry mouth (7 mg/day (N = 8)): 3 (38%); Dry skin (7 mg/day (N = 8)): 1 (13%); Dysgeusia (7 mg/day (N = 8)): 2 (25%); Dyspepsia (7 mg/day (N = 8)): 0 (0%); Dyspnoea (7 mg/day (N = 8)): 1 (13%); Dyspnoea exertional (7 mg/day (N = 8)): 0 (0%); Eye infection (7 mg/day (N = 8)): 0 (0%); Fatigue (7 mg/day (N = 8)): 2 (25%); Gastritis (7 mg/day (N = 8)): 1 (13%); Gravitational oedema (7 mg/day (N = 8)): 1 (13%); Hypercholesterolaemia (7 mg/day (N = 8)): 1 (13%); Hyperglycaemia (7 mg/day (N = 8)): 8 (100%); Hypocalcaemia (7 mg/day (N = 8)): 1 (13%); Insomnia (7 mg/day (N = 8)): 0 (0%); Lymphopenia (7 mg/day (N = 8)): 2 (25%); Mucosal inflammation (7 mg/day (N = 8)): 4 (50%); Muscle spasms (7 mg/day (N = 8)): 0 (0%); Nausea (7 mg/day (N = 8)): 3 (38%); Orthostatic hypotension (7 mg/day (N = 8)): 1 (13%); Panniculitis (7 mg/day (N = 8)): 1 (13%); Patients Reporting at Least One Related TEAE (7 mg/day (N = 8)): 8 (100%); Polyuria (7 mg/day (N = 8)): 0 (0%); Pruritus (7 mg/day (N = 8)): 2 (25%); Rash (7 mg/day (N = 8)): 4 (50%); Skin discolouration (7 mg/day (N = 8)): 1 (13%); Skin exfoliation (7 mg/day (N = 8)): 1 (13%); Thrombocytopenia (7 mg/day (N = 8)): 3 (38%); Vomiting (7 mg/day (N = 8)): 3 (38%); Weight decreased (7 mg/day (N = 8)): 1 (13%); ASTHENIA (7 mg/week (N = 3)): 0 (0%); ATHENIA (7 mg/week (N = 3)): 0 (0%); Alanine aminotransferase increased (7 mg/week (N = 3)): 1 (33%); Aspartate aminotransferase increased (7 mg/week (N = 3)): 1 (33%); Asthenia (7 mg/week (N = 3)): 0 (0%); Blood creatinine increased (7 mg/week (N = 3)): 0 (0%); Blood triglycerides increased (7 mg/week (N = 3)): 0 (0%); DIARRHEA (7 mg/week (N = 3)): 0 (0%); Decreased appetite (7 mg/week (N = 3)): 0 (0%); Diarrhoea (7 mg/week (N = 3)): 1 (33%); Dysgeusia (7 mg/week (N = 3)): 1 (33%); Dyspepsia (7 mg/week (N = 3)): 0 (0%); HYPERGLYCEMIA (7 mg/week (N = 3)): 0 (0%); Hyperglycaemia (7 mg/week (N = 3)): 1 (33%); Lymphopenia (7 mg/week (N = 3)): 1 (33%); Malaise (7 mg/week (N = 3)): 0 (0%); Mucosal inflammation (7 mg/week (N = 3)): 0 (0%); Muscle spasms (7 mg/week (N = 3)): 0 (0%); Nausea (7 mg/week (N = 3)): 1 (33%)
